From US4775675A, “Thiazolidinecarboxylic acid derivatives and treatment of liver diseases therewith” (Biogal Gyogyszergyar, priority 1985, dated 1988)
Where a name gives a salt, the structure may show the parent alone.

Columns and labels:
CFY male rats [1] = assay: liver protecting effect: carbon tetrachloride intoxication followed by treatment with the compounds under test; type: in vivo, rat (CFY male); conditions: CCl4 1.5 g/kg orally, compound 100 mg/kg i.p. after 6 hours; for TG (triglyceride content of the liver): control 40 ± 8, CCl4 alone 86 ± 17; for SGOT activity: control 81.7 ± 16, CCl4 alone 269.0 ± 14
Experimental: (§1) In order to investigate the liver protecting effect, the compounds were tested at CFY male rats with 200 to 240 g of body-weight after a starvation for 18 hours.
(§2) An experimental liver damage was elicited by using carbon tetrachloride, allyl alcohol or galactosamine. The activity of the serum glutamate-oxalacetate-transaminase (SGOT), the triglyceride (TG) content of the liver as well as the histological picture of the liver were studied.
(§3) Liver damaging agents (1.5 g/kg of body-weight of carbon tetrachloride orally; 0.75 g/kg of body-weight of galactosamine intraperitoneally) were administered to the starved animals, whereupon the animals received the compound under test in a dose of 100 mg/kg of body-weight intraperitoneally after 6 hours.
(a) The results of the carbon tetrachloride intoxication followed by treatment with the compounds under test are as follows: […]

[2] = acute toxicity investigation (LD50); conditions: mouse, in vivo, mice
Experimental: The compounds prepared were subjected to acute toxicity investigations. For this purpose, the compounds under test were dissolved in an aqueous sodium carbonate solution and administered intraperitoneally (i.p.) or intravenously (i.v.) to the animals (40 days old CFLP female mice).
Some characteristic LD50 values of the compounds of the invention are as follows: […]

CFY male rats [3] = assay: liver protecting effect: galactosamine damage followed by treatment with the compounds under test (histology); type: in vivo, rat (CFY male); conditions: galactosamine 0.75 g/kg i.p., compound i.p. 6 hours later
CFY male rats [4] = assay: liver protecting effect: allyl alcohol intoxication followed by treatment with the compounds under test; type: in vivo, rat (CFY male); conditions: compound 100 mg/kg of body-weight, after 24 hours, before 1.81±0.43, allyl alcohol 4.16±1.63
Experimental: as §1, §2, §3
(b) The results of the allyl alcohol intoxication followed by treatment with the compounds under test are as follows:
After 24 hours, the animals were killed and the activity of the serum glutamate-pyruvate-transaminase (SGPT) was determined. After a treatment with allyl alcohol, the SGPT level was increased from a value of 1.81±0.43 μmoles/ml.h. to 4.16±1.63 μmoles/ml. h. This increase was diminished to 2.84±0.97 μmoles/ml.h. by a treatment with a 100 mg/kg of body-weight dose of the compound described in Example 1.

CC1(C)SC(c2ccc([N+](=O)[O-])o2)N[C@H]1C(=O)O (stereo partly drawn) [Example 1, 5,5-Dimethyl-2-(5-nitro-2-furyl)-thiazolidine-4(S)-carboxylic acid]
TG (triglyceride content of the liver) (CFY male rats [1]): 51 ± 15 µg/mg protein | SGOT activity (CFY male rats [1]): 224.0 ± 14 unit/liter | LD50 ([2]; iv): 2190 mg/kg | number of focally appearing parenchymal necroses (CFY male rats [3]): diminished | severity of the alterations characteristic of the galactosamine hepatitis (CFY male rats [3]): diminished | SGPT level (activity of the serum glutamate-pyruvate-transaminase) (CFY male rats [4]): 2.84 ± 0.97 µmol/mL/h

CC1(C)SC(c2ccco2)N[C@H]1C(=O)O (stereo partly drawn) [Example 2, 5,5-Dimethyl-2-(2-furyl)-thiazolidine-4(S)-carboxylic acid]
TG (triglyceride content of the liver) (CFY male rats [1]): 84 ± 6 µg/mg protein | SGOT activity (CFY male rats [1]): 229.0 ± 14 unit/liter | number of focally appearing parenchymal necroses (CFY male rats [3]): diminished | severity of the alterations characteristic of the galactosamine hepatitis (CFY male rats [3]): diminished

Cn1cccc1C1N[C@@H](C(=O)O)C(C)(C)S1 (stereo partly drawn) [Example 4, 5,5-Dimethyl-2-(N-methyl-2-pyrrolyl)thiazolidine-4(S)-carboxylic acid]
TG (triglyceride content of the liver) (CFY male rats [1]): 114 ± 24 µg/mg protein | SGOT activity (CFY male rats [1]): 241.0 ± 21 unit/liter

CC1(C)SC(c2cccnc2)N[C@H]1C(=O)O (stereo partly drawn) [Example 5, 5,5-Dimethyl-2-(3-pyridyl)-thiazolidine-4(S)-carboxylic acid]
TG (triglyceride content of the liver) (CFY male rats [1]): 61 ± 14 µg/mg protein | SGOT activity (CFY male rats [1]): 243.0 ± 21 unit/liter

CC1(C)SC(c2ccncc2)N[C@H]1C(=O)O (stereo partly drawn) [Example 6, 5,5-Dimethyl-2-(4-pyridyl)-thiazolidine-4(S)-carboxylic acid]
TG (triglyceride content of the liver) (CFY male rats [1]): 88 ± 20 µg/mg protein | SGOT activity (CFY male rats [1]): 250.0 ± 13 unit/liter

CC1(C)SC(c2cc3ccccc3o2)N[C@H]1C(=O)O (stereo partly drawn) [Example 7, 2-(2-Benzofuryl)-5,5-dimethylthiazolidine-4(S)-carboxylic acid]
TG (triglyceride content of the liver) (CFY male rats [1]): 61 ± 13 µg/mg protein | SGOT activity (CFY male rats [1]): 224.0 ± 14 unit/liter

CC1(C)SC(c2ccc3c(c2)CCC3)N[C@H]1C(=O)O (stereo partly drawn) [Example 8, 5,5-Dimethyl-2-(5-indanyl)-thiazolidine-4(S)-carboxylic acid]
TG (triglyceride content of the liver) (CFY male rats [1]): 76 ± 10 µg/mg protein | SGOT activity (CFY male rats [1]): 234.0 ± 23 unit/liter

CC1(C)SC(c2cccc([N+](=O)[O-])c2)N[C@H]1C(=O)O (stereo partly drawn) [Example 9, 5,5-Dimethyl-2-(3-nitrophenyl)-thiazolidine-4(S)-carboxylic acid magnesium salt]
TG (triglyceride content of the liver) (CFY male rats [1]): 83 ± 19 µg/mg protein | SGOT activity (CFY male rats [1]): 232.0 ± 34 unit/liter

CC1(C)SC(c2ccc(F)cc2)N[C@H]1C(=O)[O-].[K+] (stereo partly drawn) [Example 10, 5,5-Dimethyl-2-(4-fluorophenyl)-thiazolidine-4(S)-carboxylic acid and potassium salt]
TG (triglyceride content of the liver) (CFY male rats [1]): 81 ± 11 µg/mg protein | SGOT activity (CFY male rats [1]): 227.0 ± 40 unit/liter

CSc1ccc(C2N[C@@H](C(=O)O)C(C)(C)S2)cc1 (stereo partly drawn) [Example 11, 5,5-Dimethyl-2-(4-methylmercaptophenyl)-thiazolidine-4(S)-carboxylic acid]
TG (triglyceride content of the liver) (CFY male rats [1]): 70 ± 14 µg/mg protein | SGOT activity (CFY male rats [1]): 235.0 ± 19 unit/liter

CC1(C)SC(CO)N[C@H]1C(=O)O (stereo partly drawn) [Example 14, 5,5-Dimethyl-2-hydroxymethylthiazolidine-4(S)-carboxylic acid]
LD50 ([2]; ip): 5000 mg/kg

CC(=O)N1[C@@H](c2ccc(Cl)cc2)SC(C)(C)[C@@H]1C(=O)O [Example 22, 3-Acetyl-2(R)-(4-chlorophenyl)-5,5-dimethylthiazolidine-4(S)-carboxylic acid]
LD50 ([2]; ip): 550 mg/kg

CC(=O)N1[C@@H](C(=O)O)C(C)(C)S[C@H]1c1ccccc1 [Example 27, 3-Acetyl-5,5-dimethyl-2(S)-phenylthiazolidine-4(S)-carboxylic acid]
LD50 ([2]; ip): 1500 mg/kg

CC(=O)N1[C@@H](C(=O)O)C(C)(C)S[C@H]1c1ccc([N+](=O)[O-])o1 [Example 30, 3-Acetyl-5,5-dimethyl-2(S)-(5-nitro-2-furyl)-thiazolidine-4(S)-carboxylic acid]
LD50 ([2]; ip): 2500 mg/kg

Oc1cc(O)c2c(c1)O[C@H](c1ccc(O)c(O)c1)[C@@H](O)C2 [catergen, (+)2-(3,4-dihydroxyphenyl)-3,5,7-chromanetriol, reference compound]
TG (triglyceride content of the liver) (CFY male rats [1]): 77 ± 7 µg/mg protein | SGOT activity (CFY male rats [1]): 241.0 ± 23 unit/liter
